Reference: ChEMBL document CHEMBL1201862, “PubChem BioAssay data set” (2004)
Each block holds one compound with its values, some of them ahead of it. Calls of active or inactive are those of the source.

Key:
[1] = target: Protein disulfide-isomerase A6 (Homo sapiens, UniProt Q15084); experiment: Secondary Assay for Selectivity of PDI Inhibitors (against ERp5) Measured in Biochemical System Using Plate Reader - 2137-04_Inhibitor_Dose_DryPowder_Activity_Set3.
Mu-type opioid receptor = Mu-type opioid receptor (Homo sapiens, UniProt P35372); type: functional, cell-based;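 note: U2OS cells with beta-arrestin recruitment to OPRM1 by beta-gal complementation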
Mu-type opioid receptor, sequence (P35372 whole entry): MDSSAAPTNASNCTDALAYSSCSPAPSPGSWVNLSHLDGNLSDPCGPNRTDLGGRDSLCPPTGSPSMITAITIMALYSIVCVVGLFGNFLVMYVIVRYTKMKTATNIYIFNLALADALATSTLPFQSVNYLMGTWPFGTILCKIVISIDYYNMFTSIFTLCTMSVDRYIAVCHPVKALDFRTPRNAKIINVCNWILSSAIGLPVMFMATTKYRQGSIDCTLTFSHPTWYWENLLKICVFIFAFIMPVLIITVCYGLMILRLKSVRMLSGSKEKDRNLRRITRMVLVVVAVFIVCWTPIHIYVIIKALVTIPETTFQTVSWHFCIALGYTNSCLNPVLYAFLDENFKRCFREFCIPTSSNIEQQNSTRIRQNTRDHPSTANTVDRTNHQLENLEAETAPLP

[2] = target: 5-hydroxytryptamine receptor 2A (Mus musculus, UniProt P35363); type: functional, cell-based;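 note: CHO-K1 cells with tagged receptor and beta-arrestin; agonist potency measured as compound-induced activation of the receptor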
5-hydroxytryptamine receptor 2A, sequence (P35363 whole entry): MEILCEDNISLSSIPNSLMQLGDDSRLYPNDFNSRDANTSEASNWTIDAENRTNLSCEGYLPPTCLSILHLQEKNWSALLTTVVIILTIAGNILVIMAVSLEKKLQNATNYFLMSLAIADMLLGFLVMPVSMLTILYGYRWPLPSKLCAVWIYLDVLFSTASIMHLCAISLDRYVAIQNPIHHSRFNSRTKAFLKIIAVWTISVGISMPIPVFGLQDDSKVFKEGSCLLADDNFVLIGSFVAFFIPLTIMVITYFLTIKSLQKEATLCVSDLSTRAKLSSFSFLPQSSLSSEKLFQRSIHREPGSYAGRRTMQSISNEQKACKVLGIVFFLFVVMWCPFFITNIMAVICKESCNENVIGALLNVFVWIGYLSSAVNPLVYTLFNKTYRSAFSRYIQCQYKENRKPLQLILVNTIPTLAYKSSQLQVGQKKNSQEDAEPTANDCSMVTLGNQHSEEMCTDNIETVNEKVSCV

Paired box protein Pax-8 = Paired box protein Pax-8 (Homo sapiens, UniProt Q06710); experiment: PAX8 transcriptional activity inhibition in RMG-I – RMG-I cells, luciferase, cherry-pick, dose response (AID 687027); type: functional, cell-based;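 note: luciferase reporter driven by Pax8 target thyroperoxidase promoter measured by SteadyGlo luminescence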
Paired box protein Pax-8, sequence (Q06710 whole entry): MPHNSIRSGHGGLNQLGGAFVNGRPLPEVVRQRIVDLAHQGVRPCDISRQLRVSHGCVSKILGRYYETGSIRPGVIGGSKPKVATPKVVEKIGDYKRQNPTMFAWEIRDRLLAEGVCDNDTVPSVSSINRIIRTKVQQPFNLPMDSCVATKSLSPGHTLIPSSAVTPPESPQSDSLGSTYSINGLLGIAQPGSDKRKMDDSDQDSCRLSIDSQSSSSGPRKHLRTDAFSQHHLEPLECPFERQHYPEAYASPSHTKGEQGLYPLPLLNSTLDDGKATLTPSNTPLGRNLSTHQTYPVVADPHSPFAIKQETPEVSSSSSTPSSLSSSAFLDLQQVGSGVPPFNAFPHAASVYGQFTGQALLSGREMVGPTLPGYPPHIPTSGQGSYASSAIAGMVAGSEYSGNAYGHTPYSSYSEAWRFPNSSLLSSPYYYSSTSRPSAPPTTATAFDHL

[3] = OVCAR-3 cell viability loss – plate reader, dry powder samples, PAX8 inhibitor project, dose response (AID 743044); type: functional, cell-based
[4] = CMV-driven luciferase expression suppression in HEK293 – cell-based, luminescence, dry powder, counter-screen for Pax8 inhibitor project, dose response (AID 743020); type: functional
Protein Wnt-3a = Protein Wnt-3a (Mus musculus, UniProt P27467); experiment: SAR analysis of small molecule antagonists of Gli-SUFU in a Wnt3a luminescent reporter assay.; type: functional
Protein Wnt-3a, sequence (P27467 whole entry): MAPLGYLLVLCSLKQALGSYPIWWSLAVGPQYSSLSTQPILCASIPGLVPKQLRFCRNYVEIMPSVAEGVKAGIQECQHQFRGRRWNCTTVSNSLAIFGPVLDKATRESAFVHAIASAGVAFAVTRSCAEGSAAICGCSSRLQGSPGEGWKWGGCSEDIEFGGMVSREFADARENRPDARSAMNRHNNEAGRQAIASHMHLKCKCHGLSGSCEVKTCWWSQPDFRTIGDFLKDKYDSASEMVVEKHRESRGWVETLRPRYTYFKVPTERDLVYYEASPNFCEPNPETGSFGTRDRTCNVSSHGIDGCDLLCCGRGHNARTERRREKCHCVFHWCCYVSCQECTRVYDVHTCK

Plasmodium falciparum = experiment: antimalarial activity against intraerythrocytic 3D7 parasites – 3D7 strain, red blood cells, SYBR Green, cherry-picked, dose response (AID 652047); type: functional

Protein disulfide-isomerase A6, sequence (Q15084 whole entry): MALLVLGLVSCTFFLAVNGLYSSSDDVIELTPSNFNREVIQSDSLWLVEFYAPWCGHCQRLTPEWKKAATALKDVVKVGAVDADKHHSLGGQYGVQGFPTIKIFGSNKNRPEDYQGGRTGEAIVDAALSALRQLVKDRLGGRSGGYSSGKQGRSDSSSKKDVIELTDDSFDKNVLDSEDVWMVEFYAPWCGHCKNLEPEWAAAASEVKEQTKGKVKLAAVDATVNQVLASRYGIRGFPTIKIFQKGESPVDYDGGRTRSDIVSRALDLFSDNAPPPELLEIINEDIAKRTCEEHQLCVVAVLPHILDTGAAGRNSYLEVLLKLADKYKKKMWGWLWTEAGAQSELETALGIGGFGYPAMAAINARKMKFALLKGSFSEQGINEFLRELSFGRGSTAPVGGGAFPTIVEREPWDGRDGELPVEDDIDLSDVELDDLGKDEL

- AC50 [1]: 5 µM (active)
Compound: C/C1=C\[C@@H](O)C(C)(C)CCCC2(C)OC2C[C@@H]1OC(=O)c1ccc(O)cc1 (stereo partly drawn)

Compound: CCOC(=O)C1(Cc2ccc(Cl)cc2)CCN(C(C)CCn2cccn2)CC1 (stereo not drawn)
- EC50 (Mu-type opioid receptor): 92.5 µM (inactive)
- EC50 [2]: 52.2 µM (inactive)

Compound: C[C@@H]1CN([C@H](C)CO)C(=O)c2cc(NC(=O)Nc3ccc(F)cc3)ccc2O[C@@H](C)CCCCO[C@H]1CN(C)Cc1ccc(C(F)(F)F)cc1
- AC50 (Paired box protein Pax-8): 4.13 µM (active)
- AC50 [3]: 15.8 µM (active)
- AC50 [4]: 37.9 µM (active)

- IC50 (Protein Wnt-3a): > 21.8 µM (inactive)
Compound: CCCCN(C)c1cc(NC(=O)c2ccccc2)ncn1

Compound: CCCc1cc(C(N)=O)c(NC(=O)c2cc(C)on2)s1
- AbsAC35 (Plasmodium falciparum): 70.04 µM
